In general, pIC50 refers to the negative decadic logarithm of the IC50, by convention in mol/L. The efflux ratio is a quotient of directional permeabilities that is used to spot active efflux. A word on the Papp: it is the rate of passage across a membrane or cell layer, normalised by area and donor concentration. A higher Papp goes with fast passage.

Series [1] relates to A375 cells. Nature of the series: Cellular phospho-ERK inhibition assay in A375 cells. The class given is cell-based. The conditions noted are these: Homo sapiens, A-375, A375 cells (head prints A357), 2 hours treatment, read-out: A357 cell IC50. An outline of the steps:
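A375 (DMEM) or H1755 (RPMI) cells in 10% FBS treated 2 h at 37 °C with 9-point series, 66 pM–10 μM, 0.25% DMSO. Phospho-ERK1/2 (Thr202/Tyr204) measured by In Cell Western, normalised to GAPDH and to DMSO and 10 μM binimetinib controls; IC50 by 4-parameter fit.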

In series [2] the target is full-length FLAG-tagged B-Raf(V600E) (Homo sapiens (Human), UniProt P15056, V600E). Nature of the series: BRAF V600E enzyme assay (TR-FRET competitive displacement). Type of series: binding. The conditions noted are these: averaged IC50; TR-FRET tracer displacement, 60 min. An outline of the steps: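 Displacement of 50 nM Tracer 1710 from 5 nM full-length N-terminally FLAG-tagged B-Raf(V600E), detected by TR-FRET with 0.5 nM Eu anti-FLAG antibody, in 25 mM HEPES pH 7.4, 10 mM MgCl2, 2% DMSO; 60 min at ~22 °C. Compounds 11-point, 3-fold from 10 μM; IC50 from 4-parameter fit at 50 POC.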
full-length FLAG-tagged B-Raf(V600E), sequence (P15056 whole entry V600E): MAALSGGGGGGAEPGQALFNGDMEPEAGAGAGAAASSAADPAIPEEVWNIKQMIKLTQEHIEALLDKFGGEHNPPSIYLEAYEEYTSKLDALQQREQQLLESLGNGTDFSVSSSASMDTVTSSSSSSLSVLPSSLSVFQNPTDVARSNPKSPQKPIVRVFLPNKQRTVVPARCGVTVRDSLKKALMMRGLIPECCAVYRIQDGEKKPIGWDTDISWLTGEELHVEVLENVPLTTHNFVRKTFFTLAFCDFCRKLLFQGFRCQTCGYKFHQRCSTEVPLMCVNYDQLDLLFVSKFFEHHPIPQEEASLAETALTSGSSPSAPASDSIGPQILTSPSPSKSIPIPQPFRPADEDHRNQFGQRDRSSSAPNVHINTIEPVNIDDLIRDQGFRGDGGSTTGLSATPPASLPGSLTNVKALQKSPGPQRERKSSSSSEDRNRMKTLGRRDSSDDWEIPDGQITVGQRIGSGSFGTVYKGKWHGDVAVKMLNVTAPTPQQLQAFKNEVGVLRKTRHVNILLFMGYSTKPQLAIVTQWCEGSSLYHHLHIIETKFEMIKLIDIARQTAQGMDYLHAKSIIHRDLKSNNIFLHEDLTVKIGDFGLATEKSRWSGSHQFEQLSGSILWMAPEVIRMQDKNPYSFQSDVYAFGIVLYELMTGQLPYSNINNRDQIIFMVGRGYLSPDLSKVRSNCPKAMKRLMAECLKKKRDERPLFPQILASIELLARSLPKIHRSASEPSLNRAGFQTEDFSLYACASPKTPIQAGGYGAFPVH

Series [3] concerns the target BCRP (Homo sapiens (Human), UniProt Q9UNQ0). As to the kind of experiment: BCRP MDCKII permeability assay: efflux ratio. The conditions noted are these: dog. Type of series: in vitro ADME.
In series [4] the target is P-gp (MDR1) (Homo sapiens (Human), UniProt P08183). Nature of the series: MDR1 LLC-PK1 permeability assay: efflux ratio. Type of series: in vitro ADME. The conditions noted are these: pig. From the text:
(§1) Final organic concentration in the assay was 1%.

The nature of series [5]: MDR1 LLC-PK1 and BCRP MDCKII permeability assay: permeability coefficient (Papp). The class given is in vitro ADME.
From the text: as §1

The subject of series [6] is H1755 cells. Nature of the series: Cellular phospho-ERK inhibition assay in H1755 cells. The class given is cell-based. The settings on record: Homo sapiens, NCI-H1755, 2 hours treatment, read-out: H1755 Cell IC50. As for the experimental part:
A375 and H1755 cells were obtained from the American Type Culture Collection (ATCC, Rockville, MD). A375 cells were maintained in DMEM growth medium containing 10% FBS. H1755 cells were maintained in RPMI growth medium containing 10% FBS.
Cells were harvested according to standard protocols, counted and plated onto flat-bottom, 96-well tissue culture plates (Costar #3599) at 2.5×10^4 cells/well for A375 cells and 1.5×10^4 cells/well for H1755 cells in 100 μL/well of growth medium containing 10% FBS. After an overnight incubation at 37° C. with 5% CO2 cells were treated for 2 hours at 37° C., 5% CO2 with compounds prepared as a 9-point, 1:3.33 fold dilution series with final compound concentrations ranging from 66 pM-10 μM and a constant DMSO concentration of 0.25%. Control wells contained either 0.25% DMSO alone (uninhibited control) or 10 μM binimetinib (complete inhibition control). The levels of phosphorylated ERK are determined using an In Cell Western protocol: following compound incubation, growth medium was discarded, and cells were fixed with 0.4% formaldehyde in PBS for 20 minutes at room temperature. Cells were permeabilized with 100% methanol for 10 minutes at room temperature. Plates were washed with PBS containing 0.05% Tween-20 and blocked for 1 hour at room temperature with LI-COR Blocking Buffer (LI-COR Biosciences; Cat #927-40000). Plates were then incubated for 2 hours at room temperature with 50 μL of a 1:400 dilution of anti-phospho-ERK1/2 (Thr202/Tyr204) (Cell Signaling; Cat #9101) and a 1:1000 dilution of anti-GAPDH (Millipore; Cat #MAB374) in LI-COR blocking buffer containing 0.05% Tween-20. Plates were washed with PBS containing […] Tween-20 then incubated at room temperature for 1 hour with 50 μL of a 1:1000 dilution of anti-rabbit AlexaFluor 680 (Life Technologies; Cat #A21109) and a 1:1000 dilution of anti-mouse IRDye 800CW (LI-COR; Cat #926-32210) in LI-COR blocking buffer containing 0.05% Tween-20. Plates were analyzed by reading on an Odyssey CLx infrared scanner. For each well, the phospho-ERK signal was normalized to the GAPDH signal and converted to POC using the following equation:
[formula] • Where: • Xmax Average Uninhibited Controls • Xmin Average Complete Inhibition Controls IC50 values were then calculated using a 4-parameter fit in XLfit software and are provided in Table A1.

pIC50: −log10 of the molar value. Structures can show the parent of a compound that is named as a salt.

BCRP, sequence (Q9UNQ0 whole entry): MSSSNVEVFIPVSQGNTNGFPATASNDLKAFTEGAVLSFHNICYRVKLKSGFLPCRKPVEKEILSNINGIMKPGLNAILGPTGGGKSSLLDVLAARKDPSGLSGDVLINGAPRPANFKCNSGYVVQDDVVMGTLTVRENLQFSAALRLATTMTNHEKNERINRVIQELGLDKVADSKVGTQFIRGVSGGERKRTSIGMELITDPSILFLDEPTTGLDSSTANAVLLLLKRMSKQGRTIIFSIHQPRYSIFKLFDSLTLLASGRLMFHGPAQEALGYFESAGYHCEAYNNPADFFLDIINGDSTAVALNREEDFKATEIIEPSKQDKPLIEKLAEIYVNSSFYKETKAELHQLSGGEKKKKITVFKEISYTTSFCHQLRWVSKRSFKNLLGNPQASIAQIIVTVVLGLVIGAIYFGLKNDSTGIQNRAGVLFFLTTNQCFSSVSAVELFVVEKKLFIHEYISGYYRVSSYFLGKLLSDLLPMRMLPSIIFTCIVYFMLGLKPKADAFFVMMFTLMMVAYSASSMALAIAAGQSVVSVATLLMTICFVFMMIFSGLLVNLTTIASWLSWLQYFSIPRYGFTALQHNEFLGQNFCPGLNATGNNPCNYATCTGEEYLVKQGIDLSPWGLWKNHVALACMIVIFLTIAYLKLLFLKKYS
P-gp (MDR1), sequence (P08183 whole entry, species assumed): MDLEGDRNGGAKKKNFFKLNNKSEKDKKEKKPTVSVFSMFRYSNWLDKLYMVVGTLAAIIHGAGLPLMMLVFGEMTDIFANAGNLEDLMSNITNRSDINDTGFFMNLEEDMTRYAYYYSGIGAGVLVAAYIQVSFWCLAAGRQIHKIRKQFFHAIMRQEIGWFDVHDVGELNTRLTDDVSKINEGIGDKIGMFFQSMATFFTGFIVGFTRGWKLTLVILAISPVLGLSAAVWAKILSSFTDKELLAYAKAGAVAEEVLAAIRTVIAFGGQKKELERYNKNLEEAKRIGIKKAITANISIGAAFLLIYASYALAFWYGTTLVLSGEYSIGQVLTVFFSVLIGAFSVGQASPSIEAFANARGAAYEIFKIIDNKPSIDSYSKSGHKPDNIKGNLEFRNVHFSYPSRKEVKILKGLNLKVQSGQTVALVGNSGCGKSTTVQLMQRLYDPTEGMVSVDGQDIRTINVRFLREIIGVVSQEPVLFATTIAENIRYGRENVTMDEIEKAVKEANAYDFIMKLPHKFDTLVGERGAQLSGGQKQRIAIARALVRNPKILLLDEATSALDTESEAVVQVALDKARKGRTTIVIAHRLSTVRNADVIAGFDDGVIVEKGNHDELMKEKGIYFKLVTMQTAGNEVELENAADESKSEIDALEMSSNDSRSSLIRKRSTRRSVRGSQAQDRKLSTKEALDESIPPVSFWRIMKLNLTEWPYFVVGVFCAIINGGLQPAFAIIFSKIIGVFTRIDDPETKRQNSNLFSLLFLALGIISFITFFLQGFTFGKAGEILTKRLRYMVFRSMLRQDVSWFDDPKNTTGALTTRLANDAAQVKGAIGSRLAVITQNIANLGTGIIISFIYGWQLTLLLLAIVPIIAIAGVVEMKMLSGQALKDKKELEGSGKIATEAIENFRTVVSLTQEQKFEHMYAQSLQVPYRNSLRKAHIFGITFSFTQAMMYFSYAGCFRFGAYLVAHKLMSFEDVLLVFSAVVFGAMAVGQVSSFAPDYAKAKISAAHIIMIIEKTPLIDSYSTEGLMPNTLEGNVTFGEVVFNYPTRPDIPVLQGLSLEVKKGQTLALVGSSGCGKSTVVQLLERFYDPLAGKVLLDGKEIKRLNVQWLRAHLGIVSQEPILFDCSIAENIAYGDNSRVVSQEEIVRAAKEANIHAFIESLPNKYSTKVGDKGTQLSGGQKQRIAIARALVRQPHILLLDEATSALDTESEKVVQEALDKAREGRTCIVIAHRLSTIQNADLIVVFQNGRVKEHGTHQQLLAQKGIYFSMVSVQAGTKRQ

As to `CO[C@@H]1CN(S(=O)(=O)Nc2ccc(F)c(Nc3ccc4ncn(C)c(=O)c4c3F)c2Cl)C[C@@H]1F` (relative stereo) [Example 15, cis-N-(2-chloro-4-fluoro-3-((5-fluoro-3-methyl-4-oxo-3,4-dihydroquinazolin-6-yl)amino)phenyl)-3-fluoro-4-methoxypyrrolidine-1-sulfonamide], the pIC50 was 8.70 in series [1], 8.22 in series [2] and 7.80 in series [6]. Further, the efflux ratio at 2 h, 1 µM in series [3] turned out to be 13.4; in series [4], 6.8. For the same compound, in series [5], the Papp at 2 h, 1 µM stood at 26 ×10⁻⁶ cm/s.
As to `CO[C@H]1CN(S(=O)(=O)Nc2ccc(F)c(Nc3ccc4ncn(C)c(=O)c4c3Br)c2Cl)C[C@H]1F` (relative stereo) [Example 16, cis-N-(3-((5-bromo-3-methyl-4-oxo-3,4-dihydroquinazolin-6-yl)amino)-2-chloro-4-fluorophenyl)-3-fluoro-4-methoxypyrrolidine-1-sulfonamide trifluoroacetate], the pIC50 in series [1] is 8.15; in series [2] it was 8.22; in series [6], 7.37. Further, the efflux ratio at 2 h, 1 µM came out at 4.5 in series [3] and 5.9 in series [4]. In addition, the apparent permeability coefficient (Papp) at 2 h, 1 µM in series [5] was 29 ×10⁻⁶ cm/s.
In the case of `CO[C@@H]1CN(S(=O)(=O)Nc2ccc(F)c(Nc3ccc4ncn(C)c(=O)c4c3Cl)c2Cl)C[C@@H]1F` (relative stereo) [Example 18, cis-N-(2-chloro-3-((5-chloro-3-methyl-4-oxo-3,4-dihydroquinazolin-6-yl)amino)-4-fluorophenyl)-3-fluoro-4-methoxypyrrolidine-1-sulfonamide], the values for the negative-log IC50 (pIC50) in series [1], in series [2] and in series [6] were 8.70, 8.40 and 7.74, respectively. For the same compound, the efflux ratio at 2 h, 1 µM in series [3] came out at 4.9; in series [4], 3. Moreover, the Papp at 2 h, 1 µM in series [5] came out at 40 ×10⁻⁶ cm/s.
As for `CO[C@@H]1CCN(S(=O)(=O)Nc2ccc(F)c(Nc3ccc4ncn(C)c(=O)c4c3C)c2Cl)C1` [Example 1, (R)-N-(2-chloro-3-((3,5-dimethyl-4-oxo-3,4-dihydroquinazolin-6-yl)amino)-4-fluorophenyl)-3-methoxypyrrolidine-1-sulfonamide], the pIC50 in series [1] is 7.49; in series [2], 7.22; in series [6], 6.99. The results for the efflux ratio at 2 h, 1 µM in series [3] and in series [4] were 1.4 and 1.7, respectively. In series [5], the Papp at 2 h, 1 µM turned out to be 31 ×10⁻⁶ cm/s.
For the compound `CCN(C)S(=O)(=O)Nc1ccc(F)c(Nc2ccc3ncn(C)c(=O)c3c2Cl)c1Cl` [Example 2], the negative logarithm of the IC50 (pIC50) in series [1] was 7.82; in series [2], 7.44; in series [6] it was 7.24. Moreover, the values for the efflux ratio at 2 h, 1 µM in series [3] and in series [4] were 1 and 1.2, respectively. Moreover, the Papp at 2 h, 1 µM in series [5] was found to be 31 ×10⁻⁶ cm/s.
Regarding `CN(C)S(=O)(=O)Nc1ccc(F)c(Nc2ccc3ncn(C)c(=O)c3c2Cl)c1Cl` [Example 3, N-(2-chloro-3-((5-chloro-3-methyl-4-oxo-3,4-dihydroquinazolin-6-yl)amino)-4-fluorophenyl)-(N,N-dimethyl)-sulfamide], the negative logarithm of the IC50 (pIC50) in series [1] was 7.80; in series [2], 7.52; in series [6] it was 7.21. Also, the efflux ratio at 2 h, 1 µM came to 1.5 in series [3] and 1.3 in series [4]. Also, the Papp at 2 h, 1 µM in series [5] was determined as 33 ×10⁻⁶ cm/s.
As to `CCN(C)S(=O)(=O)Nc1ccc(F)c(Nc2ccc3ncn(C)c(=O)c3c2F)c1Cl` [Example 4, N-(2-chloro-4-fluoro-3-((5-fluoro-3-methyl-4-oxo-3,4-dihydroquinazolin-6-yl)amino)phenyl)-(N-ethyl-N-methyl)-sulfamide], the results for the pIC50 in series [1], in series [2] and in series [6] were 7.72, 7.49 and 7.10, respectively. Moreover, the values for the efflux ratio at 2 h, 1 µM in series [3] and in series [4] were 2.1 and 1.6, respectively. In series [5], this compound showed an apparent permeability (Papp) at 2 h, 1 µM of 27 ×10⁻⁶ cm/s.
Turning to `CO[C@@H]1CCN(S(=O)(=O)Nc2ccc(F)c(Nc3ccc4ncn(C)c(=O)c4c3F)c2Cl)C1` [Example 5, (R)-N-(2-chloro-4-fluoro-3-((5-fluoro-3-methyl-4-oxo-3,4-dihydroquinazolin-6-yl)amino)phenyl)-3-methoxypyrrolidine-1-sulfonamide], the pIC50 is 8.40 in series [1], 7.85 in series [2] and 7.70 in series [6]. Further, the efflux ratio at 2 h, 1 µM in series [3] was determined as 3.4; in series [4], 3.8. The compound also yielded a Papp at 2 h, 1 µM in series [5] of 27 ×10⁻⁶ cm/s.
Consider `CO[C@@H]1CCN(S(=O)(=O)Nc2ccc(F)c(Nc3ccc4ncn(C)c(=O)c4c3Br)c2Cl)C1` [Example 8, (R)-N-(3-((5-bromo-3-methyl-4-oxo-3,4-dihydroquinazolin-6-yl)amino)-2-chloro-4-fluorophenyl)-3-methoxypyrrolidine-1-sulfonamide trifluoroacetate], for which the negative logarithm of the IC50 (pIC50) in series [1] is 7.92; in series [2], 8.00; in series [6] it was 7.59. Moreover, the values for the efflux ratio at 2 h, 1 µM in series [3] and in series [4] were 1.3 and 2.5, respectively. In series [5], this compound showed a Papp at 2 h, 1 µM of 23 ×10⁻⁶ cm/s.
For `CO[C@@H]1CCN(S(=O)(=O)Nc2ccc(F)c(Oc3ccc4ncn(C)c(=O)c4c3C)c2Cl)C1` [Example 10, (R)-N-(2-chloro-3-((3,5-dimethyl-4-oxo-3,4-dihydroquinazolin-6-yl)oxy)-4-fluorophenyl)-3-methoxypyrrolidine-1-sulfonamide], the pIC50 was 7.92 in series [1], 8.10 in series [2] and 7.08 in series [6]. Besides, the results for the efflux ratio at 2 h, 1 µM in series [3] and in series [4] were 0.7 and 1.6, respectively. The Papp at 2 h, 1 µM in series [5] is 27 ×10⁻⁶ cm/s.
Regarding `Cn1cnc2ccc(Nc3cc(Cl)cc(NS(=O)(=O)N4CC[C@@H](F)C4)c3F)c(Cl)c2c1=O` [Example 56, (R)-N-(5-chloro-3-((5-chloro-3-methyl-4-oxo-3,4-dihydroquinazolin-6-yl)amino)-2-fluorophenyl)-3-fluoropyrrolidine-1-sulfonamide trifluoroacetate], the values for the pIC50 in series [1], in series [2] and in series [6] were 8.40, 9.00 and 7.64, respectively. The results for the efflux ratio at 2 h, 1 µM in series [3] and in series [4] were 2.8 and 2.3, respectively.
For `Cn1cnc2ccc(Nc3c(F)ccc(NS(=O)(=O)N4CC(F)C4)c3Cl)c(F)c2c1=O` [Example 127, N-(2-chloro-4-fluoro-3-((5-fluoro-3-methyl-4-oxo-3,4-dihydroquinazolin-6-yl)amino)phenyl)-3-fluoroazetidine-1-sulfonamide trifluoroacetate], the pIC50 in series [1] was 8.70; in series [6], 7.80. Also, the efflux ratio at 2 h, 1 µM stood at 5.1 in series [3] and 3.8 in series [4]. Moreover, in series [5], the Papp at 2 h, 1 µM is 34 ×10⁻⁶ cm/s.
In the case of `Cc1c(Nc2c(F)ccc(NS(=O)(=O)N3CC(C)(F)C3)c2Cl)ccc2ncn(C)c(=O)c12` [Example 155, N-(2-chloro-3-((3,5-dimethyl-4-oxo-3,4-dihydroquinazolin-6-yl)amino)-4-fluorophenyl)-3-fluoro-3-methylazetidine-1-sulfonamide trifluoroacetate], the pIC50 is 7.00 in series [1] and 5.75 in series [6]. Moreover, the efflux ratio at 2 h, 1 µM in series [3] stood at 1.2; in series [4] it was 1.4. This compound displayed an apparent permeability coefficient (Papp) at 2 h, 1 µM in series [5] of 34 ×10⁻⁶ cm/s.

These data come from patent US12303509B2, “Compounds for the treatment of BRAF-associated diseases and disorders” (Pfizer Inc., priority 2020, dated 2025).
